Source: patent publication US20260125382A1, “COMPOUNDS FOR INHIBITING OR DEGRADING CDK2 AND/OR CDK9 AND MEDICINAL USE THEREOF” (KOREA RESEARCH INSTITUTE OF CHEMICAL TECHNOLOGY, priority 2022, published 2026)

Legend:
CDK9 = molecular target: T1, CDK9 (Homo sapiens, UniProt P50750); assay: CDK protein degradation activity (Western blotting), CDK9; type: cell-based; conditions: MDA-MB-231 cells, 16 hours, Western blot
T1 construct: endogenous in cells; host or cells: MDA-MB-231
How it was run: (§1)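 CDK2 and CDK9 protein levels measured by Western blot with densitometry, using tubulin as loading reference. Cells were MDA-MB-231, exposed for 16 h to 100 nM, 1 μM or 10 μM compound or to DMSO.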

CDK2 = molecular target: T2, CDK2 (Homo sapiens, UniProt P24941); assay: CDK protein degradation activity (Western blotting), CDK2; type: cell-based; conditions: MDA-MB-231 cells, 16 hours, Western blot
T2 construct: endogenous in cells; host or cells: MDA-MB-231
How it was run: as §1

T1 sequence (P50750 whole entry): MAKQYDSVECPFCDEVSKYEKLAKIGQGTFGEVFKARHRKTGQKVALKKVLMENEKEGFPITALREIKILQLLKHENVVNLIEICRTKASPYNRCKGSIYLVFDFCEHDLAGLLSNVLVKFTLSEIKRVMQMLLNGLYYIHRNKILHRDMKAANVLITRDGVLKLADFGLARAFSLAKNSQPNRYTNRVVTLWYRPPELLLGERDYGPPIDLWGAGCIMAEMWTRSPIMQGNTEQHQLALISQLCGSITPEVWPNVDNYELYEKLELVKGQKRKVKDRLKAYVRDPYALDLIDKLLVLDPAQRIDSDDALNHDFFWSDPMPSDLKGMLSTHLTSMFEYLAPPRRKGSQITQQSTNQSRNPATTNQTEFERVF

O=C1CC[C@@H](c2cccc(OCC(=O)N3CCC(CN4CCC(c5ccc(Nc6ncnc7c6ncn7C6CC(NC(=O)Cc7ccccc7)C6)cc5)CC4)CC3)c2)C(=O)N1 (stereo partly drawn) [Compound 282, N-((1s,3s)-3-(6-((4-(1-((1-(2-(3-(2,6-dioxopiperidin-3-yl)phenoxy)acetyl)piperidin-4-yl)methyl)piperidin-4-yl)phenyl)amino)-9H-purin-9-yl)cyclobutyl)-2-phenylacetamide]
Enzyme degradation CDK9 (% remaining) @ 0.1 μM (CDK9): 0/0/0% | Enzyme degradation CDK9 (% remaining) @ 1 μM (CDK9): 0/0/0% | Enzyme degradation CDK9 (% remaining) @ 10 μM (CDK9): 0/0/0% | Enzyme degradation CDK2 (% remaining) @ 0.1 μM (CDK2): 10% | Enzyme degradation CDK2 (% remaining) @ 1 μM (CDK2): 20% | Enzyme degradation CDK2 (% remaining) @ 10 μM (CDK2): 20%

O=C1CCC(N2C(=O)c3ccc(N4CC(C(=O)N5CCN(C6CN(c7ccc(Nc8ncnc9c8ncn9[C@H]8C[C@@H](NC(=O)Cc9ccccc9)C8)cc7)C6)CC5)C4)cc3C2=O)C(=O)N1 (stereo partly drawn) [Compound 374, N-((1s,3s)-3-(6-((4-(3-(4-(1-(2-(2,6-dioxopiperidin-3-yl)-1,3-dioxoisoindolin-5-yl)azetidin-3-carbonyl)piperazin-1-yl)azetidin-1-yl)phenyl)amino)-9H-purin-9-yl)cyclobutyl)-2-phenylacetamide]
Enzyme degradation CDK9 (% remaining) @ 0.1 μM (CDK9): 30% | Enzyme degradation CDK9 (% remaining) @ 1 μM (CDK9): 20% | Enzyme degradation CDK9 (% remaining) @ 10 μM (CDK9): 20% | Enzyme degradation CDK2 (% remaining) @ 0.1 μM (CDK2): 30% | Enzyme degradation CDK2 (% remaining) @ 1 μM (CDK2): 30% | Enzyme degradation CDK2 (% remaining) @ 10 μM (CDK2): 50%

COc1ccc(C(=O)N2CCC(CC(=O)N3CCN(c4ccc(Nc5ncnc6c5ncn6[C@H]5C[C@@H](NC(=O)Cc6ccccc6)C5)cc4)CC3)CC2)cc1N1CCC(=O)NC1=O [Compound 194, N-((1s,3s)-3-(6-((4-(4-(2-(1-(3-(2,4-dioxotetrahydropyrimidin-1(2H)-yl)-4-methoxybenzoyl)piperidin-4-yl)acetyl)piperazin-1-yl)phenyl)amino)-9H-purin-9-yl)cyclobutyl)-2-phenylacetamide]
Enzyme degradation CDK9 (% remaining) @ 0.1 μM (CDK9): 70% | Enzyme degradation CDK9 (% remaining) @ 1 μM (CDK9): 50% | Enzyme degradation CDK9 (% remaining) @ 10 μM (CDK9): 40% | Enzyme degradation CDK2 (% remaining) @ 0.1 μM (CDK2): 50% | Enzyme degradation CDK2 (% remaining) @ 1 μM (CDK2): 10% | Enzyme degradation CDK2 (% remaining) @ 10 μM (CDK2): 10%

O=C1CC[C@H](N2C(=O)c3cccc(NCC(=O)N4CCC(CN5CCN(c6ccc(Nc7ncnc8c7ncn8C7CC(NC(=O)c8cccc(F)n8)C7)cc6)CC5)CC4)c3C2=O)C(=O)N1 (stereo partly drawn) [Compound 430, N-((1s,3s)-3-(6-((4-(4-((1-((2-(2,6-dioxopiperidin-3-yl)-1,3-dioxoisoindolin-4-yl)glycyl)piperidin-4-yl)methyl)piperazin-1-yl)phenyl)amino)-9H-purin-9-yl)cyclobutyl)-6-fluoropicolinamide]
Enzyme degradation CDK9 (% remaining) @ 0.1 μM (CDK9): 0/0/0% | Enzyme degradation CDK9 (% remaining) @ 1 μM (CDK9): 0/0/0% | Enzyme degradation CDK9 (% remaining) @ 10 μM (CDK9): 0/0/0% | Enzyme degradation CDK2 (% remaining) @ 0.1 μM (CDK2): 10/10/10% | Enzyme degradation CDK2 (% remaining) @ 1 μM (CDK2): 10/10/10% | Enzyme degradation CDK2 (% remaining) @ 10 μM (CDK2): 10/10/10%

O=C1CC[C@@H](c2ccc(OCC(=O)N3CCC(CN4CCC(c5ccc(Nc6ncnc7c6ncn7C6CC(NC(=O)Cc7ccccc7)C6)cc5)CC4)CC3)cc2)C(=O)N1 (stereo partly drawn) [Compound 281, N-((1s,3s)-3-(6-((4-(1-((1-(2-(4-(2,6-dioxopiperidin-3-yl)phenoxy)acetyl)piperidin-4-yl)methyl)piperidin-4-yl)phenyl)amino)-9H-purin-9-yl)cyclobutyl)-2-phenylacetamide]
Enzyme degradation CDK9 (% remaining) @ 0.1 μM (CDK9): 0/0/0% | Enzyme degradation CDK9 (% remaining) @ 1 μM (CDK9): 0/0/0% | Enzyme degradation CDK9 (% remaining) @ 10 μM (CDK9): 0/0/0% | Enzyme degradation CDK2 (% remaining) @ 0.1 μM (CDK2): 30% | Enzyme degradation CDK2 (% remaining) @ 1 μM (CDK2): 50% | Enzyme degradation CDK2 (% remaining) @ 10 μM (CDK2): 50%

Cc1cccc(C(=O)N[C@H]2C[C@@H](n3cnc4c(NC5CCN(CCC6CCN(c7ccc8c(c7)C(=O)N([C@H]7CCC(=O)NC7=O)C8=O)CC6)CC5)ncnc43)C2)n1 [Compound 35, N-((1s,3s)-3-(6-((1-(2-(1-(2-(2,6-dioxopiperidin-3-yl)-1,3-dioxoisoindolin-5-yl)piperidin-4-yl)ethyl)piperidin-4-yl)amino)-9H-purin-9-yl)cyclobutyl)-6-methylpicolinamide]
Enzyme degradation CDK9 (% remaining) @ 0.1 μM (CDK9): 0% | Enzyme degradation CDK9 (% remaining) @ 1 μM (CDK9): 10% | Enzyme degradation CDK9 (% remaining) @ 10 μM (CDK9): 10% | Enzyme degradation CDK2 (% remaining) @ 0.1 μM (CDK2): 100% | Enzyme degradation CDK2 (% remaining) @ 1 μM (CDK2): 60% | Enzyme degradation CDK2 (% remaining) @ 10 μM (CDK2): 60%

Cc1cccc(C(=O)NC2CC(n3cnc4c(NCCCN5CCN(C(=O)CNc6cccc7c6C(=O)N([C@@H]6CCC(=O)NC6=O)C7=O)CC5)ncnc43)C2)n1 (stereo partly drawn) [Compound 139, N-((1r,3r)-3-(6-((3-(4-((2-(2,6-dioxopiperidin-3-yl)-1,3-dioxoisoindolin-4-yl)glycyl)piperazin-1-yl)propyl)amino)-9H-purin-9-yl)cyclobutyl)-6-methylpicolinamide]
Enzyme degradation CDK9 (% remaining) @ 0.1 μM (CDK9): 80% | Enzyme degradation CDK9 (% remaining) @ 1 μM (CDK9): 90% | Enzyme degradation CDK9 (% remaining) @ 10 μM (CDK9): 70% | Enzyme degradation CDK2 (% remaining) @ 0.1 μM (CDK2): 80% | Enzyme degradation CDK2 (% remaining) @ 1 μM (CDK2): 90% | Enzyme degradation CDK2 (% remaining) @ 10 μM (CDK2): 80%

O=C1CCC(N2C(=O)c3cccc(OCC(=O)N4CCC(CCCN5CCN(c6ccc(Nc7ncnc8c7ncn8[C@H]7C[C@@H](NC(=O)Cc8ccccc8)C7)cc6)CC5)CC4)c3C2=O)C(=O)N1 (stereo partly drawn) [Compound 254, N-((1s,3s)-3-(6-((4-(4-(3-(1-(2-((2-(2,6-dioxopiperidin-3-yl)-1,3-dioxoisoindolin-4-yl)oxy)acetyl)piperidin-4-yl)propyl)piperazin-1-yl)phenyl)amino)-9H-purin-9-yl)cyclobutyl)-2-phenylacetamide]
Enzyme degradation CDK9 (% remaining) @ 0.1 μM (CDK9): 50% | Enzyme degradation CDK9 (% remaining) @ 1 μM (CDK9): 20% | Enzyme degradation CDK9 (% remaining) @ 10 μM (CDK9): 0% | Enzyme degradation CDK2 (% remaining) @ 0.1 μM (CDK2): 50% | Enzyme degradation CDK2 (% remaining) @ 1 μM (CDK2): 30% | Enzyme degradation CDK2 (% remaining) @ 10 μM (CDK2): 20%

O=C1CC[C@H](N2C(=O)c3cccc(N4CCC5(CC4)CC(N4CCN(c6ccc(Nc7ncnc8c7ncn8[C@H]7C[C@@H](NC(=O)Cc8ccccc8)C7)cc6)CC4)C5)c3C2=O)C(=O)N1 [Compound 209, N-((1s,3s)-3-(6-((4-(4-(7-(2-(2,6-dioxopiperidin-3-yl)-1,3-dioxoisoindolin-4-yl)-7-azaspiro[3.5]nonan-2-yl)piperazin-1-yl)phenyl)amino)-9H-purin-9-yl)cyclobutyl)-2-phenylacetamide]
Enzyme degradation CDK9 (% remaining) @ 0.1 μM (CDK9): 30% | Enzyme degradation CDK9 (% remaining) @ 1 μM (CDK9): 20% | Enzyme degradation CDK9 (% remaining) @ 10 μM (CDK9): 10% | Enzyme degradation CDK2 (% remaining) @ 0.1 μM (CDK2): 70% | Enzyme degradation CDK2 (% remaining) @ 1 μM (CDK2): 60% | Enzyme degradation CDK2 (% remaining) @ 10 μM (CDK2): 30%

O=C1CC[C@H](N2C(=O)c3ccc(OCC(=O)N4CCC(CCCN5CCN(c6ccc(Nc7ncnc8c7ncn8[C@H]7C[C@@H](NC(=O)Cc8ccccc8)C7)cc6)CC5)CC4)cc3C2=O)C(=O)N1 [Compound 256, N-((1s,3s)-3-(6-((4-(4-(3-(1-(2-((2-(2,6-dioxopiperidin-3-yl)-1,3-dioxoisoindolin-5-yl)oxy)acetyl)piperidin-4-yl)propyl)piperazin-1-yl)phenyl)amino)-9H-purin-9-yl)cyclobutyl)-2-phenylacetamide]
Enzyme degradation CDK9 (% remaining) @ 0.1 μM (CDK9): 60% | Enzyme degradation CDK9 (% remaining) @ 1 μM (CDK9): 10% | Enzyme degradation CDK9 (% remaining) @ 10 μM (CDK9): 0% | Enzyme degradation CDK2 (% remaining) @ 0.1 μM (CDK2): 40% | Enzyme degradation CDK2 (% remaining) @ 1 μM (CDK2): 30% | Enzyme degradation CDK2 (% remaining) @ 10 μM (CDK2): 30%

Cc1cccc(C(=O)N[C@H]2C[C@@H](n3cnc4c(NCc5ccc(N6CCN(CC7CCN(c8ccc9c(c8)C(=O)N([C@H]8CCC(=O)NC8=O)C9=O)CC7)CC6)cc5)ncnc43)C2)n1 [Compound 151, N-((1s,3s)-3-(6-((4-(4-((1-(2-(2,6-dioxopiperidin-3-yl)-1,3-dioxoisoindolin-5-yl)piperidin-4-yl)methyl)piperazin-1-yl)benzyl)amino)-9H-purin-9-yl)cyclobutyl)-6-methylpicolinamide]
Enzyme degradation CDK9 (% remaining) @ 0.1 μM (CDK9): 0/0/0% | Enzyme degradation CDK9 (% remaining) @ 1 μM (CDK9): 0/0/0% | Enzyme degradation CDK9 (% remaining) @ 10 μM (CDK9): 0/0/0% | Enzyme degradation CDK2 (% remaining) @ 0.1 μM (CDK2): 30% | Enzyme degradation CDK2 (% remaining) @ 1 μM (CDK2): 10% | Enzyme degradation CDK2 (% remaining) @ 10 μM (CDK2): 10%

O=C(Cc1cccc(NC2=CC(=O)N(C3CCC(=O)NC3=O)C2=O)c1)NC[C@H]1CC[C@H](CN2CCN(c3ccc(Nc4ncnc5c4ncn5[C@H]4C[C@@H](NC(=O)Cc5ccccc5)C4)cc3)CC2)CC1 (stereo partly drawn) [Compound 200, 2-(3-((1-(2,6-dioxopiperidin-3-yl)-2,5-dioxo-2,5-dihydro-1H-pyrrol-3-yl)amino)phenyl)-N-(((1r,4r)-4-((4-(4-((9-((1s,3s)-3-(2-phenylacetamido)cyclobutyl)-9H-purin-6-yl)amino)phenyl)piperazin-1-yl)methyl)cyclohexyl)methyl)acetamide]
Enzyme degradation CDK9 (% remaining) @ 0.1 μM (CDK9): 20/20/20% | Enzyme degradation CDK9 (% remaining) @ 1 μM (CDK9): 20/20/20% | Enzyme degradation CDK9 (% remaining) @ 10 μM (CDK9): 20/20/20% | Enzyme degradation CDK2 (% remaining) @ 0.1 μM (CDK2): 100/100/100% | Enzyme degradation CDK2 (% remaining) @ 1 μM (CDK2): 100/100/100% | Enzyme degradation CDK2 (% remaining) @ 10 μM (CDK2): 100/100/100%

CC(=O)N[C@H]1C[C@@H](n2cnc3c(NCC4CCN(CC5CCN(C(=O)COc6ccc7c(c6)C(=O)N([C@H]6CCC(=O)NC6=O)C7=O)CC5)CC4)ncnc32)C1 [Compound 154, N-((1s,3s)-3-(6-(((1-((1-(2-((2-(2,6-dioxopiperidin-3-yl)-1,3-dioxoisoindolin-5-yl)oxy)acetyl)piperidin-4-yl)methyl)piperidin-4-yl)methyl)amino)-9H-purin-9-yl)cyclobutyl)acetamide]
Enzyme degradation CDK9 (% remaining) @ 0.1 μM (CDK9): 90% | Enzyme degradation CDK9 (% remaining) @ 1 μM (CDK9): 70% | Enzyme degradation CDK9 (% remaining) @ 10 μM (CDK9): 30% | Enzyme degradation CDK2 (% remaining) @ 0.1 μM (CDK2): 100% | Enzyme degradation CDK2 (% remaining) @ 1 μM (CDK2): 70% | Enzyme degradation CDK2 (% remaining) @ 10 μM (CDK2): 70%
